pIC50: −log10 of the molar value.
Target: T1, human GPR84 receptor (Homo sapiens, UniProt Q9NQS5)
T1 construct: host or cells: HEK293, transient transfection
Assay: Gαi biosensor BRET assay in HEK293 cells (antagonism of ZQ-16)
Assay type: cell-based
Settings: HEK293, single concentration 2 μM (designated A)
Outline: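 Antagonist mode: test compound 5 min at 37° C, followed by ZQ-16 agonist (200 nmol/L, 5 min, room temperature), in HEK293 cells transfected with GPR84 plus Rluc8-tagged Gαi2, GFP10-Gγ2 and Gβ1. Readout as GFP10/Rluc8 emission ratio after 5 μmol/L coelenterazine 400A, net of Rluc8-only and vehicle signal.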

T1 sequence (Q9NQS5 whole entry): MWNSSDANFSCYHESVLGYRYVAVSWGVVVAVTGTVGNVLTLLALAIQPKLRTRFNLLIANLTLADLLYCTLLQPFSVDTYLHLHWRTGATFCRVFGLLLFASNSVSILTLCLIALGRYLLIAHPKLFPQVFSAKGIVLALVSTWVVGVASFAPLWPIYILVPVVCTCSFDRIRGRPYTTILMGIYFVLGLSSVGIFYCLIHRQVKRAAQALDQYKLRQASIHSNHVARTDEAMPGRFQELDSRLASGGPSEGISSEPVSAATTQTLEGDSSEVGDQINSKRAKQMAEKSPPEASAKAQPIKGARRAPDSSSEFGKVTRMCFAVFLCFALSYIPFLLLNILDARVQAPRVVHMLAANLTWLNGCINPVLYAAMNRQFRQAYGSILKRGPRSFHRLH

| inhibition at 2 µM [%] | Compound |
| --- | --- |
| > 75 | CC(C)Oc1cc(N2CC(C)(C)C2)ccc1-c1cn(CC2CCCCO2)nn1 (stereo not shown) [Compound I-271] |
| > 75 | Cc1ccc(C#CC2CC2)cc1-c1cn(Cc2ncccn2)nn1 [Compound I-293] |
| ≤ 25 | Cc1cc(NC(=O)CC2CC2)ccc1-c1cn(CC2CCCCO2)nn1 (stereo not shown) [Compound I-358] |
| 25 to 50 | Cc1cc(N2CC(C)(C(=O)Nc3ccccc3)C2)ccc1-c1cn(CC2CCCCO2)nn1 (stereo not shown) [Compound I-410] |

Same assay, conditions: HEK293, single concentration 3 μM (designated B)

| inhibition at 3 µM [%] | Compound |
| --- | --- |
| 25 to 50 | Cc1cc(C#CC2CC2)ccc1-c1cn(CC2Cc3ccccc3O2)nn1 (stereo not shown) [Compound I-363] |

Same assay, conditions: HEK293, single concentration 5 μM (designated D)

| inhibition at 5 µM [%] | Compound |
| --- | --- |
| ≤ 25 | Cn1cc(-c2ccc(C#CC3CC3)cc2)nc1CC1CCCCO1 (stereo not shown) [Compound I-337] |

Same assay, conditions: HEK293, single concentration 10 μM (designated F)

| Compound | inhibition at 10 µM [%] |
| --- | --- |
| Cc1cc(CCCCN2CCCCC2)ccc1-c1cn(CC2CCCCO2)nn1 (stereo not shown) [Compound I-270] | ≤ 25 |
| Cc1cc(C#CCO)cnc1-c1cn(C[C@H]2CCCCO2)nn1 [Compound I-272] | 50 to 75 |
| CCc1cc(C#CCN(C)CC2CC2)cnc1-c1cn(CC2CCCCO2)nn1 (stereo not shown) [Compound I-276] | > 75 |
| CCc1cc(C#CCN2CC(C)(C)C2)cnc1-c1cn(C[C@H]2CCCCO2)nn1 [Compound I-277] | > 75 |
| CC1(C)CN(c2ccc(-c3cn(CC4CCCCO4)nn3)c(OCCO)c2)C1 (stereo not shown) [Compound I-280] | > 75 |
| Cc1cc(C#CCN2CC(C)(C)C2)cnc1-c1cn(C[C@H]2CCCCO2)nn1 [Compound I-284] | > 75 |
| CCn1c(C#CC2CC2)cnc1-c1cn(CC2CCCCO2)nn1 (stereo not shown) [Compound I-285] | > 75 |
| Cc1cc(OCC(C)(C)N(C)C)ccc1-c1cn(C[C@H]2CCCCO2)nn1 [Compound I-289] | 25 to 50 |
| CC(=O)N(C)C(C)(C)COc1ccc(-c2cn(CC3CCCCO3)nn2)c(C)c1 (stereo not shown) [Compound I-290] | 25 to 50 |
| CC(c1cccc(C#CC2CC2)c1)c1cn(CC2CCCCO2)nn1 (stereo not shown) [Compound I-302] | > 75 |
| Cc1cc(C#CCNc2ccccc2)ccc1-c1cn(CCC2CCCCO2)nn1 (stereo not shown) [Compound I-306] | 25 to 50 |
| O=C(O)c1cc(C#CC2CC2)ccc1-c1cn(CC2CCCCO2)nn1 (stereo not shown) [Compound I-309] | ≤ 25 |
| Cc1cc(N2CC3(CCN(C(=O)c4ccccc4)CC3)C2)ccc1-c1cn(CC2CCCCO2)nn1 (stereo not shown) [Compound I-310] | 50 to 75 |
| Cc1cc(C#CC2CC2)ccc1-c1cn(Cc2nccs2)nn1 [Compound I-314] | 25 to 50 |
| Cc1cc(C#CC2CC2)ccc1-c1ccn(CC2CCCCO2)n1 (stereo not shown) [Compound I-325] | ≤ 25 |
| Cc1cc(C#CC2CC2)ccc1-c1cn(CC2CCCCO2)nc1C (stereo not shown) [Compound I-326] | ≤ 25 |
| Cc1cc(C#CC2CC2)ccc1-c1cnn(CC2CCCCO2)c1C (stereo not shown) [Compound I-327] | ≤ 25 |

| Compound | inhibition at 10 µM [%] |
| --- | --- |
| C(#CC1CC1)c1ccc2c(c1)CCc1cn(CC3CCCCO3)nc1-2 (stereo not shown) [Compound I-328] | ≤ 25 |
| C(#CC1CC1)c1ccc2c(c1)CCc1cnn(CC3CCCCO3)c1-2 (stereo not shown) [Compound I-329] | 25 to 50 |
| c1ccc(COc2ccc3c(c2)CCc2cnn(CC4CCCCO4)c2-3)cc1 (stereo not shown) [Compound I-331] | ≤ 25 |
| Cc1cc(C#CC2CC2)ccc1-c1cn(CC2CCCCO2)cn1 (stereo not shown) [Compound I-341] | 50 to 75 |
| Cc1cc(C#CC2CC2)ccc1-c1nnc(CC2CCCCO2)o1 (stereo not shown) [Compound I-342, 2-(4-(cyclopropylethynyl)-2-methylphenyl)-5-((tetrahydro-2H-pyran-2-yl)methyl)-1,3,4-oxadiazole] | ≤ 25 |
| Cc1ccc(C#CC2CC2)cc1-c1nnc(CC2CCCCO2)o1 (stereo not shown) [Compound I-343] | 50 to 75 |
| Cc1cc(C#CC2CC2)ccc1-c1nn(C[C@H]2CCCCO2)nc1C [Compound I-345] | ≤ 25 |
| CNCc1cc(C#CC2CC2)ccc1-c1cn(CC2CCCCO2)nn1 (stereo not shown) [Compound I-355] | 50 to 75 |
| Cc1cc(C(=O)NCC2CC2)ccc1-c1cn(CC2CCCCO2)nn1 (stereo not shown) [Compound I-357] | 50 to 75 |
| Cc1cc(C#CC2CC2)ccc1-c1cn(CC2CCCOC2)nn1 (stereo not shown) [Compound I-364] | 25 to 50 |
| CC1(C)CN(c2ccc(-c3cn(CC4CCCCO4)nn3)c(F)c2)C1 (stereo not shown) [Compound I-379] | > 75 |
| Cc1cc(N2CC(C)(C)C2)cnc1-c1cn(CC2CCCCO2)nn1 (stereo not shown) [Compound I-380] | > 75 |
| Cc1ccc(-c2ccc(C3CN(CC4CCCCO4)C(=O)O3)c(C)c2)cn1 (stereo not shown) [Compound I-406, 5-(2-methyl-4-(6-methylpyridin-3-yl)phenyl)-3-((tetrahydro-2H-pyran-2-yl)methyl)oxazolidin-2-one] | ≤ 25 |
| Cc1ccc(-c2ccc(C3COC(=O)N3CC3CCCCO3)c(C)c2)cn1 (stereo not shown) [Compound I-407, 4-(2-methyl-4-(6-methylpyridin-3-yl)phenyl)-3-((tetrahydro-2H-pyran-2-yl)methyl)oxazolidin-2-one] | ≤ 25 |
| COC(=O)C1(C)CN(c2ccc(-c3cn(CC4CCCCO4)nn3)c(C)c2)C1 (stereo not shown) [Compound I-409] | 25 to 50 |
| COc1ccc(-c2cn(CC3CCCCO3)nn2)c(C)c1 (stereo not shown) [Compound I-412] | ≤ 25 |
| Cc1cc(C#CC2CC2)cnc1-c1cn(CC2OCCCO2)nn1 [Compound I-414] | 50 to 75 |

The next lines start with the values.

| inhibition at 10 µM [%] | Compound |
| --- | --- |
| 50 to 75 | COCC#Cc1cnc(-c2cn(CC3CCCCO3)nn2)c(C)c1 (stereo not shown) [Compound I-273] |
| 50 to 75 | CCc1cc(C#CC2CC2)cnc1-c1cn(CC2CCOCC2)nn1 [Compound I-274] |
| > 75 | CCc1cc(C#CCN2CCC(F)(F)CC2)cnc1-c1cn(CC2CCCCO2)nn1 (stereo not shown) [Compound I-275] |
| > 75 | COc1cc(N2CC(C)(C)C2)ccc1-c1cn(CC2CCCCO2)nn1 (stereo not shown) [Compound I-279] |
| ≤ 25 | Cc1cc(OCC(C)(C)N)ccc1-c1cn(CC2CCCCO2)nn1 (stereo not shown) [Compound I-287] |
| 25 to 50 | CNC(C)(C)COc1ccc(-c2cn(CC3CCCCO3)nn2)c(C)c1 (stereo not shown) [Compound I-288] |
| 25 to 50 | C(#CC1CC1)c1ccc(Cc2cn(CC3CCCCO3)nn2)cc1 (stereo not shown) [Compound I-298] |
| 25 to 50 | Cc1cc(C#CC2CC2)ccc1Cc1cn(CC2CCCCO2)nn1 (stereo not shown) [Compound I-300] |
| 50 to 75 | C(#CC1CC1)c1cccc(Cc2cn(CC3CCCCO3)nn2)c1 (stereo not shown) [Compound I-301] |
| ≤ 25 | C(#CC1CC1)c1ccc2c(c1)CCc1c-2nnn1CC1CCCCO1 (stereo not shown) [Compound I-303, 7-(cyclopropylethynyl)-3-((tetrahydro-2H-pyran-2-yl)methyl)-4,5-dihydro-3H-naphtho[1,2-d][1,2,3]triazole] |
| ≤ 25 | C(#CC1CC1)c1ccc2c(c1)CCc1nnn(CC3CCCCO3)c1-2 (stereo not shown) [Compound I-305] |
| 50 to 75 | Cc1cc(N2CC3(CCN(Cc4ccccn4)CC3)C2)ccc1-c1cn(CC2CCCCO2)nn1 (stereo not shown) [Compound I-311] |
| 25 to 50 | Cc1cc(C#CC2CC2)ccc1-c1cn(Cc2ccccn2)nn1 [Compound I-312] |
| 50 to 75 | CC(c1ccc(C#CC2CC2)cc1)c1cn(CC2CCCCO2)nn1 (stereo not shown) [Compound I-313] |
| 25 to 50 | Cc1cc(C#CC2CC2)ccc1-c1ncn(CC2CCCCO2)c1C (stereo not shown) [Compound I-339] |
| 25 to 50 | Cc1ccc(-c2ccc(-c3ncn(CC4CCCCO4)c3C)cc2)cn1 (stereo not shown) [Compound I-340] |
| 25 to 50 | CN(C)Cc1cc(C#CC2CC2)ccc1-c1cn(CC2CCCCO2)nn1 (stereo not shown) [Compound I-356] |
| > 75 | Cc1cc(C#CCNc2ccccc2)cnc1-c1cn(C[C@H]2CCCCO2)nn1 [Compound I-394] |

Same assay, conditions: HEK293, single concentration 15 μM (designated H)

| inhibition at 15 µM [%] | Compound |
| --- | --- |
| ≤ 25 | C(#CC1CC1)c1ccc(-c2cn(CC3CCCCO3)cn2)cc1 (stereo not shown) [Compound I-333] |

Same assay, conditions: HEK293, single concentration 25 μM (designated I)

| Compound | inhibition at 25 µM [%] |
| --- | --- |
| C(#CC1CC1)c1ccc(-n2cc(CC3CCOCC3)nn2)cc1 [Compound I-294] | ≤ 25 |
| C(#CC1CC1)c1ccc(-n2cc(CC3CCCO3)nn2)cc1 (stereo not shown) [Compound I-295] | ≤ 25 |
| Cc1cc(C#CC2CC2)ccc1-n1cc(CN2CCCCC2)nn1 [Compound I-296] | ≤ 25 |
| C(#CC1CC1)c1ccc(-c2cnn(CC3CCCCO3)c2)cc1 (stereo not shown) [Compound I-317] | ≤ 25 |
| Cc1nn(CC2CCCCO2)cc1-c1ccc(C#CC2CC2)cc1 (stereo not shown) [Compound I-319] | ≤ 25 |
| C(#CC1CC1)c1ccc(-c2ccn(CC3CCCCO3)n2)cc1 (stereo not shown) [Compound I-321] | 25 to 50 |
| Cc1nn(CC2CCCCO2)cc1-c1cccc(C#CC2CC2)c1 (stereo not shown) [Compound I-323] | ≤ 25 |
| Cc1cc(C#CC2CC2)ccc1-c1cnn(CC2CCCCO2)c1 (stereo not shown) [Compound I-324] | ≤ 25 |
| Cc1c(-c2ccc(C#CC3CC3)cc2)ncn1CC1CCCCO1 (stereo not shown) [Compound I-334] | > 75 |
| Cc1ncn(CC2CCCCO2)c1-c1ccc(C#CC2CC2)cc1 (stereo not shown) [Compound I-335] | 25 to 50 |
| Cc1nc(-c2ccc(C#CC3CC3)cc2)cn1CC1CCCCO1 (stereo not shown) [Compound I-336] | ≤ 25 |
| C(#CC1CC1)c1ccc(-c2nnnn2CC2CCCCO2)cc1 (stereo not shown) [Compound I-346] | 25 to 50 |

Next, values leading:

| inhibition at 25 µM [%] | Compound |
| --- | --- |
| ≤ 25 | Cc1cc(C#CC2CC2)ccc1-n1cc(CN2CCOCC2)nn1 [Compound I-297] |
| ≤ 25 | Cc1cn(CC2CCCCO2)nc1-c1ccc(C#CC2CC2)cc1 (stereo not shown) [Compound I-316] |
| ≤ 25 | C(#CC1CC1)c1cccc(-c2cnn(CC3CCCCO3)c2)c1 (stereo not shown) [Compound I-320] |
| ≤ 25 | Cc1c(-c2cccc(C#CC3CC3)c2)cnn1CC1CCCCO1 (stereo not shown) [Compound I-322] |

Same assay, conditions: HEK293 cells, antagonism of 200 nmol/L ZQ-16

| pIC50 | Compound |
| --- | --- |
| < 5.52 | Cc1ccc(C#CC2CC2)cc1Cc1cn(CC2CCCCO2)nn1 (stereo not shown) [Compound I-299] |
| 5.52 to 6.00 | Cc1cc(N2CC3(CCN(C(=O)c4ccccc4)CC3)C2)ccc1-c1cn(CC2CCCCO2)nn1 (stereo not shown) [Compound I-310] |
| 6.00 to 6.52 | C(#CC1CC1)c1ccc2c(c1)CCc1cnn(CC3CCCCO3)c1-2 (stereo not shown) [Compound I-329] |
| < 5.52 | C(#CC1CC1)c1ccc(-c2nnnn2CC2CCCCO2)cc1 (stereo not shown) [Compound I-346] |

— US12617777B2, “GPR84 antagonists and uses thereof” (Liminal BioSciences Limited, priority 2021, dated 2026)
